Measurements: patent publication US8394848B2, “Compounds that modulate intracellular calcium” (Calcimedica, Inc., priority 2008, dated 2013)

What was measured:
[1] = biological target: T1, recombinant human STIM1 and Orai1 (HEK-293 stable cells; JR251) (Homo sapiens, UniProt Q96D31); test: Fluorescence-based assay of store-operated calcium entry in Orai1/STIM1 stable cells; type: cell-based; conditions: 50% inhibition of Peak-Basal signal
T1 construct: c-myc (C); expressed in transfected cells
Description: A. Fluorescence-Based Assay of Store-Operated Calcium Entry in Orai1/STIM1 Stable Cells.
Cells stably expressing recombinant human STIM1 and Orai1 were generated by transfecting a human Orai1 expression plasmid (pcDNA3.1-Orai1-cmyc) into HEK-293 cells stably overexpressing human STIM1 (Roos et al. 2005 JCB 169(3): 435-445). Colonies of cells stably expressing both STIM1 and Orai1 proteins were selected and then subcloned by limiting dilution. Cells were cultured at 37° C./6% CO2 in complete medium with 10% FBS and appropriate selection markers.
The day prior to performing the assay Orai1/STIM1 stable cells were plated in 50 μL of complete medium at 90-95% confluence in a 384 well plate. Cells were grown at 37° C./6% CO2 overnight. On the day of the assay, 1.5 μM fluo-4-AM (Invitrogen) in complete medium was added to the cells, which were then incubated for 1 hour at RT. Cells were washed once in Ca^2+-free HBSS (Hank's buffered saline solution) and 35 μl of Ca^2+-free HBSS was added to each well. Test compounds were added to wells in a 10 μL Ca^2+-free HBSS solution, prepared at 4.5× the desired final concentration, and incubated for 30 minutes at RT. The initial baseline fluorescence signal was then measured with a FLIPR^384 (Molecular Devices) plate reader. Calcium entry was initiated by adding 5 μl of 10×CaCl2 (10 mM) in HBSS, and changes in cellular fluorescence were measured with the FLIPR^384 plate reader. In each well, the magnitude of the fluorescence signal as a result of calcium entry into the cell was determined by calculating the difference between the peak fluorescence signal measured after calcium addition and the initial baseline fluorescence signal (designated Peak-Basal). IC50 values were typically calculated as the concentration that inhibited 50% of the Peak-Basal signal (Table A).

RBL-2H3 cells = test: Fluorescence-based assay of store-operated calcium entry in RBL-2H3 cells; type: cell-based; conditions: Rattus norvegicus, 50% inhibition of Upslope, thapsigargin
Description: B. Fluorescence-Based Assay of Store-Operated Calcium Entry in RBL-2H3Cells.
RBL-2H3 cells were obtained from ATCC and maintained in complete medium with 10% FBS at 37° C./6% CO2.
The day prior to performing the assay, RBL-2H3 cells are plated in 50 μL of complete medium in a 384 well plate. Cells are grown at 37° C./6% CO2 overnight and grow to 50-60% confluence by the next day. On the assay day, 1.5 μM Fluo-4-AM dye (Invitrogen) in complete medium is added and incubated for 1 hour at RT. Cells are washed twice in Ca^2+-free HBSS buffer and 35 μL Ca^2+-free HBSS buffer is added to each well. 10 μL of a test compound prepared in a Ca^2+-free HBSS solution at 4.5× of the desired concentration is added to a well and incubated for 5 minutes at RT. 10 μL of thapsigargin prepared in a Ca^2+-free HBSS solution at 5.5× of the desired concentration (5.5 uM) is added to each well and incubated for an additional 25 minutes. The initial baseline fluorescence signal is measured with a FLIPR^384 (Molecular Devices) plate reader. 5 μL of 12× calcium in HBSS (12 mM) is added and changes in cellular fluorescence are measured with the FLIPR^384 plate reader. In each well, the change in the fluorescent signal as a function of time due to calcium entry into the cell is determined by calculating the difference between the fluorescent signal measured 7 seconds after calcium addition and the initial baseline fluorescence signal at time zero (t=0). This parameter is designated Upslope. The IC50 value is calculated as the concentration at which 50% of the Upslope is inhibited.

Jurkat cells = conditions: cited from earlier work
[2] = biological target: STIM1 and Orai1 in HEK293 cells (Homo sapiens, UniProt Q96D31); conditions: STIM1 and Orai1 co-expression; cited from earlier work
JR251 or RBL cells = test: Store-operated calcium entry, either JR251 or RBL cells, or both; type: cell-based
Procedure, shortened: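 FLIPR calcium-entry readout in fluo-4-loaded cells held in Ca2+-free HBSS before calcium add-back. For RBL-2H3, store depletion used thapsigargin for 25 min after a 5 min compound pre-incubation, and IC50 was based on the 7 s Upslope. For Orai1/STIM1 stable cells, compound was pre-incubated 30 min and IC50 was based on Peak-Basal.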

T1 sequence (Q96D31 whole entry): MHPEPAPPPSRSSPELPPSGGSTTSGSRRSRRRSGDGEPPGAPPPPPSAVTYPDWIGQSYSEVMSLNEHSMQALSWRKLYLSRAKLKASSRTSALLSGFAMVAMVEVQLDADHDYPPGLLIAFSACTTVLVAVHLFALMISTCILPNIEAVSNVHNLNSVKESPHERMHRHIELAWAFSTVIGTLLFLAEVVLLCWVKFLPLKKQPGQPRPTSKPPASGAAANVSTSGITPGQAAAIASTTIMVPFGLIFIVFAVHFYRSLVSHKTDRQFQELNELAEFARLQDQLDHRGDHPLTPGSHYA
STIM1 and Orai1 in HEK293 cells, sequence (Q96D31 whole entry): as above

| SMILES | IC50 [1] [µM] | IC50 (RBL-2H3 cells) [µM] | also measured |
| --- | --- | --- | --- |
| O=C(Nc1scc(-c2ccc(Br)cc2)c1C(=O)O)c1nc2c(F)cccc2o1 [C] | ≤ 0.5 | ≤ 0.5 |  |
| O=C(Nc1scc(-c2ccc(Cl)cc2)c1C(=O)O)c1nc2ccccc2s1 [G] | ≤ 0.5 | ≤ 0.5 |  |
| O=C(O)c1c(-c2ccc(Cl)cc2)csc1NC(=O)C(Cl)Cc1ccccc1 (centres unmarked) [D] | ≤ 0.5 | ≤ 0.5 |  |
| Cc1ccc(-c2csc(NC(=O)c3cnc4ccccc4n3)c2C(=O)O)c(F)c1F [F] | ≤ 0.5 | ≤ 0.5 |  |
| O=C(O)c1c(-c2ccc(Cl)cc2)csc1NC(=O)C1CCc2ccccc2C1 (centres unmarked) [K] | ≤ 0.5 | ≤ 0.5 |  |
| O=C(Nc1scc(-c2ccc(Br)cc2)c1C(=O)O)c1cc2ccccn2n1 [Compound I] | ≤ 0.5 | ≤ 0.5 |  |
| COc1cc(C)c(-c2csc(NC(=O)c3cc4ccccc4o3)c2C(=O)O)cc1C [H] | ≤ 0.5 | ≤ 0.5 |  |
| Cc1nnsc1C(=O)Nc1scc(-c2ccc(Br)cc2)c1C(=O)O [A] | 1 to 10 | 1 to 10 |  |
| O=C(Nc1scc(-c2cc3cccc(O)c3o2)c1C(=O)O)c1cc2cccc(O)c2o1 [AB] | 1 to 10 | ≤ 0.5 |  |
| CC(Cc1ccccc1)C(=O)Nc1scc(-c2ccc(Br)cc2)c1C(=O)O (centres unmarked) [E] | ≤ 0.5 | ≤ 0.5 |  |
| O=C(Nc1scc(-c2ccc(Cl)cc2)c1C(=O)O)c1ccc(C(F)(F)F)nc1 [M] | 1 to 10 |  |  |
| O=C(Nc1scc(-c2ccc(Br)cc2)c1C(=O)O)c1ccc(C(F)(F)F)nc1 [AA] | 1 to 10 |  |  |
| O=C(Nc1scc(-c2ccc(Br)cc2)c1C(=O)O)c1nc2cccc(F)c2o1 [B] | ≤ 0.5 | ≤ 0.5 |  |
| COc1c(F)c(F)cc(C(=O)Nc2scc(-c3ccc(Br)cc3)c2C(=O)O)c1F [L] | ≤ 0.5 |  |  |
| O=C(Nc1scc(-c2ccc(Cl)cc2)c1C(=O)O)c1cc2sccc2s1 [J] | ≤ 0.5 | ≤ 0.5 |  |
| Cc1nnsc1C(=O)Nc1ccc(-n2nc(C(F)(F)F)cc2C(F)(F)F)cc1 [BTP-2] |  |  | inhibition of SOCE (Jurkat cells): inhibits; inhibition of proliferation (Jurkat cells): inhibits |
| NCCOB(c1ccccc1)c1ccccc1 [2-aminoethoxydiphenylborate] |  |  | block of store-dependent Ca2+ entry [2]: completely blocked |
| O=C(Nc1scc(-c2ccc(Br)cc2)c1C(=O)O)c1cc2c(F)cccn2n1 [4-(4-bromophenyl)-2-(4-fluoropyrazolo[1,5-a]pyridine-2-carboxamido)thiophene-3-carboxylic acid] |  |  | IC50 (JR251 or RBL cells): < 10 µM |
| COc1cccc(CCC(=O)Nc2scc(-c3ccc(Br)cc3)c2C(=O)O)c1 [4-(4-bromophenyl)-2-(3-(3-methoxyphenyl)propanamido)thiophene-3-carboxylic acid] |  |  | IC50 (JR251 or RBL cells): < 10 µM |
| Cc1ccc(-c2csc(NC(=O)c3nc4ccccc4o3)c2C(=O)O)cc1C [2-(benzo[d]oxazole-2-carboxamido)-4-(3,4-dimethylphenyl)thiophene-3-carboxylic acid] |  |  | IC50 (JR251 or RBL cells): < 10 µM |
| Cc1ccc(-c2csc(NC(=O)c3cc4cccc(O)c4o3)c2C(=O)O)c(F)c1F [4-(2,3-difluoro-4-methylphenyl)-2-(7-hydroxybenzofuran-2-carboxamido)thiophene-3-carboxylic acid] |  |  | IC50 (JR251 or RBL cells): < 10 µM |
| Cc1ccc(-c2csc(NC(=O)c3nc4cc(Cl)ccc4o3)c2C(=O)O)c(F)c1F [2-(5-chlorobenzo[d]oxazole-2-carboxamido)-4-(2,3-difluoro-4-methylphenyl)thiophene-3-carboxylic acid] |  |  | IC50 (JR251 or RBL cells): < 10 µM |
| O=C(NCc1ccccc1)Nc1scc(-c2ccc(Cl)cc2)c1C(=O)O [2-(3-benzylureido)-4-(4-chlorophenyl)thiophene-3-carboxylic acid] |  |  | IC50 (JR251 or RBL cells): < 10 µM |

The next lines start with results.

| IC50 [1] [µM] | IC50 (RBL-2H3 cells) [µM] | SMILES | also measured |
| --- | --- | --- | --- |
| ≤ 0.5 | ≤ 0.5 | COc1cc(C)c(-c2csc(NC(=O)c3cc4ccccc4o3)c2C(=O)O)c(C)c1 [N] |  |
| 1 to 10 |  | O=C(Nc1scc(-c2ccc(Br)cc2)c1C(=O)O)c1cn2ccccc2n1 [Z] |  |
| ≤ 0.5 |  | O=C(Nc1scc(-c2ccc(Cl)cc2)c1C(=O)O)c1ccc2scnc2c1 [Q] |  |
| ≤ 0.5 | ≤ 0.5 | O=C(Nc1scc(-c2ccc(Cl)cc2)c1C(=O)O)c1ccc([N+](=O)[O-])o1 [V] |  |
| 1 to 10 |  | O=C(Nc1scc(-c2ccc(Br)cc2)c1C(=O)O)OCc1ccccc1 [S] |  |
| 0.5 to 1 |  | O=C(Nc1scc(-c2ccc(Cl)cc2)c1C(=O)O)c1cc(-c2ccccc2)on1 [T] |  |
| ≤ 0.5 | ≤ 0.5 | O=C(Nc1scc(-c2ccc(Cl)cc2)c1C(=O)O)c1cnc2ccccc2n1 [P] |  |
| ≤ 0.5 | ≤ 0.5 | O=C(Nc1scc(-c2ccc(Cl)cc2)c1C(=O)O)c1nc(C2CC2)cs1 [W] |  |
| ≤ 0.5 | ≤ 0.5 | O=C(Nc1scc(-c2ccc(Cl)cc2)c1C(=O)O)c1cc2nccnc2s1 [X] |  |
| ≤ 0.5 | ≤ 0.5 | O=C(CCc1cccs1)Nc1scc(-c2ccc(Cl)cc2)c1C(=O)O [R] |  |
| ≤ 0.5 | ≤ 0.5 | O=C(Nc1scc(-c2ccc(Cl)cc2)c1C(=O)O)c1cc2ccccn2n1 [O] |  |
| 1 to 10 |  | O=C(Nc1scc(-c2ccc(Cl)cc2)c1C(=O)O)c1cc2ccccc2nn1 [Y] |  |
| 1 to 10 |  | O=C(Nc1scc(-c2ccc(Cl)cc2)c1C(=O)O)/C(F)=C/c1ccccc1Cl [U] |  |
